Holding throughout (type): cell-based
Assay [1] has as its system Crypt. neoformans MY1051. Briefly: Minimum fungicidal concentration, yeast: Crypt. neoformans MY1051. Conditions: Cryptococcus neoformans, no growth or no more than three colonies. As to the method: (§1) The compounds are particularly active towards filamentous fungi and yeasts including Candida albicans and Crypt. neoformans. The sensitivity of filamentous fungi and yeast was determined using inhibitor dilution assays in microtiter format. The compounds were dissolved in DMSO at 2 mg/ml and serially diluted in 0.1 M phosphate buffer, pH 7.0 in the microtiter dish from 100 to 0.006 μg/ml. A standardized spore suspension for testing the filamentous fungi was prepared by inoculating Antibiotic Medium #3 containing 1.5% agar with spores such that 1.5×10^3 colony forming units were added per we11. The microtiter wells were filled with 50 μl of buffer containing compound and 50 μl of inoculated medium. The sensitivity of yeasts was determined by inoculating yeast nitrogen base containing 1% dextrose (YNB/G) with aliquots of an overnight yeast culture grown in Yeast Morphology (YM) media at 35° C. and diluting in YNB/G to yield a final concentration of 1.5-7.5×10^3 colony forming units/well. One hundred fifty μl of inoculated media was added per well. To test the sensitivity of yeast, compound was solubilized in 10 percent aqueous DMSO at 2.56 mg/ml. The compound was diluted serially in YNB/G from 128 to 0.06 μg/ml. The wells were filled with 150 μl of drug containing media. […]

Assay [2] has as its system C. parasilosos MY1010. In words: Minimum fungicidal concentration, yeast: C. parasilosos MY1010. The note with it: no growth or no more than three colonies. As to the method:
as §1

Assay [3] deals with C. tropialis MY1012. In words: Minimum fungicidal concentration, yeast: C. tropialis MY1012. The note with it: no growth or no more than three colonies. As to the method: as §1
The test system of assay [4] is C. albicans MY1055. In words: Minimum fungicidal concentration, yeast: C. albicans MY1055. The note with it: Candida albicans, no growth or no more than three colonies. As to the method: as §1
For assay [5], the system named is C. tropicalis MY1012. Briefly: Inhibitor dilution assay in microtiter format, yeast MIC: C. tropicalis MY1012. The note with it: Candida tropicalis; C. tropicalis MY1012, 24 to 48 hours, 35° C.; read-out: Minimum Inhibitory Concentration. As to the method: as §1
In assay [6] the test system is A. fumigatus MF4839. Briefly: Inhibitor dilution assay in microtiter format, filamentous fungi: A. fumigatus MF4839. Conditions: Aspergillus fumigatus; A. fumigatus MF4839, 42 hours, 28° C.; read-out: Minimum Inhibitory Concentration. As to the method: as §1
The test system of assay [7] is C. albicans MY1055. Briefly: Inhibitor dilution assay in microtiter format, yeast MIC: C. albicans MY1055. The note with it: Candida albicans; C. albicans MY1055, 24 to 48 hours, 35° C.; read-out: Minimum Inhibitory Concentration. As to the method:
as §1

The subject of assay [8] is T. Mentagrophytes MF4864. Briefly: Inhibitor dilution assay in microtiter format, filamentous fungi: T. Mentagrophytes MF4864. The note with it: Trichophyton mentagrophytes; T. Mentagrophytes MF4864, 42 hours, 28° C.; read-out: Minimum Inhibitory Concentration. The procedure:
as §1

In assay [9] the test system is Crypt. neoformans MY1051. Briefly: Inhibitor dilution assay in microtiter format, yeast MIC: Crypt. neoformans MY1051. The note with it: Cryptococcus neoformans; Crypt. neoformans MY1051, 24 to 48 hours, 35° C.; read-out: Minimum Inhibitory Concentration. As to the method:
as §1

In assay [10] the test system is A. flavus MF383. Briefly: Inhibitor dilution assay in microtiter format, filamentous fungi: A. flavus MF383. Conditions: Aspergillus flavus; A. flavus MF383, 42 hours, 28° C.; read-out: Minimum Inhibitory Concentration. The procedure: as §1
Assay [11] relates to C. parapsilosis MY1010. In words: Inhibitor dilution assay in microtiter format, yeast MIC: C. parapsilosis MY1010. The note with it: Lodderomyces parapsilosis; C. parapsilosis MY1010, 24 to 48 hours, 35° C.; read-out: Minimum Inhibitory Concentration. As to the method:
as §1

In assay [12] the test system is Coch. miyabeanus MF4626. In words: Inhibitor dilution assay in microtiter format, filamentous fungi: Coch. miyabeanus MF4626. The note with it: Bipolaris oryzae, MF4626, 42 h, read-out: Minimum Inhibitory Concentration. As to the method: as §1
The test system of assay [13] is A. niger MF442. Briefly: Inhibitor dilution assay in microtiter format, filamentous fungi: A. niger MF442. Conditions: Aspergillus niger; A. niger MF442, 42 hours, 28° C.; read-out: Minimum Inhibitory Concentration. As to the method:
as §1

Assay [14] relates to Fus. oxysproum MF4014. In words: Inhibitor dilution assay in microtiter format, filamentous fungi: Fus. oxysproum MF4014. The note with it: Fus. oxysproum MF4014, 42 hours, 28° C.; read-out: Minimum Inhibitory Concentration. As to the method: as §1
In assay [15] the test system is Pen. italicum MF2819. In words: Inhibitor dilution assay in microtiter format, filamentous fungi: Pen. italicum MF2819. Conditions: Penicillium italicum; Pen. italicum MF2819, 42 hours, 28° C.; read-out: Minimum Inhibitory Concentration. As to the method:
as §1

≈ marks a conversion by molar mass, not a printed value. Bounds are passed on as bounds.

One may read the MFC as the smallest concentration meeting the test's criterion for killing the fungus.

For the compound `CC=CCCCCC=CCCCCC(=O)OC1C(O)C2(CCC(C)C(O)C(C)CC=Cc3ccccc3)OC(C(=O)OC)C(O)(C(=O)OC)C1(C(=O)OC)O2` (stereo not shown) [Compound B], the MFC in assay [1], in assay [2], in [3] and in assay [4] was over 128 µg/mL in each case. The MIC in assay [5], in [6], in assay [7], in assay [8], in assay [9] and in assay [10] was over 128 µg/mL throughout. The MIC in assay [11] is over 128 µg/mL.

Consider `CC=CCCCCC=CCCCCC(=O)OC1C(O)C2(CCC(C)C(O)C(C)CC=Cc3ccccc3)OC(C(=O)O)C(O)(C(=O)O)C1(C(=O)O)O2` (stereo not shown) [Compound A], for which the MFC in [1] is 2 µg/mL (≈ 2.74 µM); in assay [2], 1 µg/mL (≈ 1.37 µM); in assay [3] it was 1 µg/mL (≈ 1.37 µM); in assay [4] it was 4 µg/mL (≈ 5.47 µM). The MIC is 4 µg/mL (≈ 5.47 µM) in assay [5]; 0.098 µg/mL (≈ 0.134 µM) in [6]; 1.6 µg/mL (≈ 2.19 µM) in assay [12]; 100 µg/mL (≈ 137 µM) in assay [13]; over 100 µg/mL in assay [14]; 8 µg/mL (≈ 10.9 µM) in assay [7]. Further, the MIC in assay [9] worked out at 4 µg/mL (≈ 5.47 µM); in assay [15], 0.025 µg/mL (≈ 0.0342 µM); in assay [10], 0.098 µg/mL (≈ 0.134 µM); in assay [11], 4 µg/mL (≈ 5.47 µM).

For the origin of these results see patent publication US5055487A, “Novel anti-fungal compounds” (Merck & Co., Inc., priority 1990, dated 1991).
